# Laboratory results as given in ChEMBL document CHEMBL1201862, “PubChem BioAssay data set” (2004).
# Activity calls are given as the source filed them. Cut-off read from the data, not from the text of the source: actives have a measured EC50 and inactives only a lower limit.
# Test system: not listed separately
# Assay: Luminescence Cell-Based Dose Response HTS to Identify Activators of Luciferase Translation or Activity in H4 […] Cells. [Related pubchem assays: 1829 (Project Summary), 1814 (Primary HTS)]
# Type: functional
row,SMILES,EC50
1,COc1ccc2c(c1)CC/C2=N\OC(=O)c1cccc(C)c1,0.105 µM (active)

# Test system: Streptococcus
# Assay: Group A Streptococcus viability loss, dose response, counter-screen for streptokinase expression inhibitor project, luminescence, BacTiterGlo (AID 1915);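 note: potency for reduction of bacterial viability or growth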
# Type: functional, organism-based
row,SMILES,EC50
1,O=C(Nc1ccccc1N1CCCC1)c1ccc2c(c1)OCO2,> 150 µM (not active)
2,COc1ccc(NC(=O)CN(C)C(=O)/C=C/c2cn(-c3ccccc3)nc2-c2ccc(F)cc2)cc1,68.1 µM (active)
3,COc1ccc(C(=O)NCC(=O)OCC(=O)N2N=C(c3ccc(Cl)cc3)CC2c2ccco2)cc1OC (centres undefined),> 150 µM (not active)
4,Cc1oc(-c2cc(Cl)cc(Cl)c2)cc1C(=O)NCCc1ccccc1,48.3 µM (active)
5,COc1ccccc1-c1nnc(NC(=O)CCS(=O)(=O)c2ccccc2)o1,> 150 µM (not active)
6,CC(C)(C)OC(=O)NCCCC[C@H](NC(=O)c1[nH]cnc1C(=O)Nc1ccc(Cl)cc1)C(=O)OC(C)(C)C,8.04 µM (active)
7,CC(C)Sc1cc(N2CCCC2)nc(-c2ccccc2)n1,> 150 µM (not active)
8,O=C(NC(=S)N1CCCCC1c1cccnc1)c1ccc(F)cc1 (centres undefined),> 150 µM (not active)
9,CSc1ccc(/C=C2\CCn3c2nc2cc(C(=O)O)ccc2c3=O)cc1,> 150 µM (not active)
10,CC(C)c1ccc(/C=N/n2c(S)nnc2-c2ccccc2)cc1,> 150 µM (not active)

# Test system: not listed separately
# Assay: cytotoxicity toward NIH3T3 fibroblasts, dose response, counter-screen, cell-based, ATP luminescence, mouse fibroblasts (AID 2010);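 note: cells exposed to compound for about 90 hours before reading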
# Type: functional
row,SMILES,EC50
1,O=C(NCCCN1CCN(CCCNC(=O)c2cccc([N+](=O)[O-])c2)CC1)c1cccc([N+](=O)[O-])c1,> 30 µM (not active)
2,Cc1onc(-c2ccccc2Cl)c1C(=O)O/N=C(\N)c1ccccc1,> 60 µM (not active)
3,O=C(CSc1nc2nncc-2c(O)n1-c1ccc(Cl)c(Cl)c1)NCc1ccccc1Cl,> 60 µM (inconclusive)
4,Cc1ccc(NP(=O)(c2ccc(N(C)C)cc2NC(=O)c2cccs2)N2CCOCC2)cc1 (centres undefined),> 60 µM (not active)
5,O=C(NC1CCCC1)C(c1ccccc1)N(Cc1cccnc1)C(=O)Cc1cccs1 (centres undefined),> 60 µM (not active)
6,CCCCc1sc(-c2c(C#N)c(N)nc3c2CCCCC3)cc1[N+](=O)[O-],> 60 µM (not active)
7,COc1ccc(CCC(=O)N2CCN(C3CCCCC3)CC2)cc1,> 60 µM (not active)
8,Cc1ccc(NC(=O)COc2ccc(CCO)cc2-n2nc3ccccc3n2)cc1C,> 60 µM (inconclusive)
9,CCOC(=O)C1(CCOc2ccccc2)CCN(Cc2cccc3nonc23)CC1,> 60 µM (not active)
10,Fc1ccc(N2CCN(Cc3c[nH]c4ccccc34)CC2)cc1,> 60 µM (not active)
11,O=C(CCC1CCCN(Cc2ccncc2)C1)NCc1ccc(F)c(F)c1 (centres undefined),> 60 µM (not active)
12,CC(C)/C=C1\CC/C(=C\c2cccnc2)C1=O,> 60 µM (not active)
13,O=C(Nc1ccc(-c2csc(Nc3ccc(Cl)cc3)n2)cc1)c1cccc(C(F)(F)F)c1,7.75 µM (active)
14,COc1c(Cl)cc(Cl)cc1C(=O)Nc1ccc(NC(=O)c2cccs2)cc1,> 60 µM (not active)

# Test system: Streptococcus sp. 'group A'
# Assay: growth inhibition of control SK(-) GAS strain, dose response, counter-screen for streptokinase expression inhibitor project, luminescence, kanamycin, BacTiterGlo, confirmation (AID 1900)
# Type: functional, organism-based
row,SMILES,EC50
1,O=C(Nc1ccccc1N1CCCC1)c1ccc2c(c1)OCO2,> 150 µM (not active)
2,COc1ccc(NC(=O)CN(C)C(=O)/C=C/c2cn(-c3ccccc3)nc2-c2ccc(F)cc2)cc1,26.5 µM (active)
3,COc1ccc(C(=O)NCC(=O)OCC(=O)N2N=C(c3ccc(Cl)cc3)CC2c2ccco2)cc1OC (centres undefined),47 µM (active)
4,Cc1oc(-c2cc(Cl)cc(Cl)c2)cc1C(=O)NCCc1ccccc1,17.3 µM (active)
5,COc1ccccc1-c1nnc(NC(=O)CCS(=O)(=O)c2ccccc2)o1,> 150 µM (not active)
6,CC(C)(C)OC(=O)NCCCC[C@H](NC(=O)c1[nH]cnc1C(=O)Nc1ccc(Cl)cc1)C(=O)OC(C)(C)C,3.64 µM (active)
7,CC(C)Sc1cc(N2CCCC2)nc(-c2ccccc2)n1,12.3 µM (active)
8,O=C(NC(=S)N1CCCCC1c1cccnc1)c1ccc(F)cc1 (centres undefined),> 150 µM (not active)
9,CSc1ccc(/C=C2\CCn3c2nc2cc(C(=O)O)ccc2c3=O)cc1,23.1 µM (active)
10,CC(C)c1ccc(/C=N/n2c(S)nnc2-c2ccccc2)cc1,18.3 µM (active)

# Target: T1, Streptokinase A (Streptococcus pyogenes serotype M1, UniProt P10520)
# T1 sequence (P10520 whole entry): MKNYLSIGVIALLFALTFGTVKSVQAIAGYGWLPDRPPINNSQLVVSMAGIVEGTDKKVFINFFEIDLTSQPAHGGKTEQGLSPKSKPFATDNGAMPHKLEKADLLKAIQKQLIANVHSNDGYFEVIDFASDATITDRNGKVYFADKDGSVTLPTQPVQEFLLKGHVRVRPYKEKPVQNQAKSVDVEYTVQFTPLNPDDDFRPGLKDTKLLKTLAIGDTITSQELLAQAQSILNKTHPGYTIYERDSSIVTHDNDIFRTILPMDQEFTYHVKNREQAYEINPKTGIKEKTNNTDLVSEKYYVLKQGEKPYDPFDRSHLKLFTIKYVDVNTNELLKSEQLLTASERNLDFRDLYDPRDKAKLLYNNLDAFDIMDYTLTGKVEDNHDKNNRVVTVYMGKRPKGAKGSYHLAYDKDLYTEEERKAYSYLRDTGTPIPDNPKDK
# Assay: S. pyogenes streptokinase expression inhibitors, potency, dose response, plasminogen activation absorbance, OD405 (AID 1914);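 note: secreted streptokinase activity via plasminogen activation per viability signal from cell pellet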
# Type: functional, Streptococcus pyogenes M1 GAS
row,SMILES,EC50
1,O=C(Nc1ccccc1N1CCCC1)c1ccc2c(c1)OCO2,> 150 µM (not active)
2,COc1ccc(NC(=O)CN(C)C(=O)/C=C/c2cn(-c3ccccc3)nc2-c2ccc(F)cc2)cc1,53.8 µM (inconclusive)
3,COc1ccc(C(=O)NCC(=O)OCC(=O)N2N=C(c3ccc(Cl)cc3)CC2c2ccco2)cc1OC (centres undefined),> 150 µM (not active)
4,Cc1oc(-c2cc(Cl)cc(Cl)c2)cc1C(=O)NCCc1ccccc1,2.57 µM (active)
5,COc1ccccc1-c1nnc(NC(=O)CCS(=O)(=O)c2ccccc2)o1,> 150 µM (not active)
6,CC(C)(C)OC(=O)NCCCC[C@H](NC(=O)c1[nH]cnc1C(=O)Nc1ccc(Cl)cc1)C(=O)OC(C)(C)C,> 150 µM (not active)
7,CC(C)Sc1cc(N2CCCC2)nc(-c2ccccc2)n1,11.2 µM (active)
8,O=C(NC(=S)N1CCCCC1c1cccnc1)c1ccc(F)cc1 (centres undefined),> 150 µM (not active)
9,CSc1ccc(/C=C2\CCn3c2nc2cc(C(=O)O)ccc2c3=O)cc1,> 150 µM (not active)
10,CC(C)c1ccc(/C=N/n2c(S)nnc2-c2ccccc2)cc1,> 150 µM (not active)

# Test system: not listed separately
# Assay: inhibitors of intracellular T. cruzi replication, confirmation, NIH3T3 host cells, beta-gal luminescence (AID 2044);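 note: intracellular parasites grown in NIH/3T3 mouse fibroblasts as host cells; luminescent beta-galactosidase reporter signal from transgenic T. cruzi replicating inside host cells; inhibitors lower the luminescence signal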
# Type: functional, cell-based
row,SMILES,EC50
1,O=C(NCCCN1CCN(CCCNC(=O)c2cccc([N+](=O)[O-])c2)CC1)c1cccc([N+](=O)[O-])c1,1.11 µM (active)
2,Cc1onc(-c2ccccc2Cl)c1C(=O)O/N=C(\N)c1ccccc1,2.34 µM (active)
3,O=C(CSc1nc2nncc-2c(O)n1-c1ccc(Cl)c(Cl)c1)NCc1ccccc1Cl,2.43 µM (active)
4,Cc1ccc(NP(=O)(c2ccc(N(C)C)cc2NC(=O)c2cccs2)N2CCOCC2)cc1 (centres undefined),1.49 µM (active)
5,O=C(NC1CCCC1)C(c1ccccc1)N(Cc1cccnc1)C(=O)Cc1cccs1 (centres undefined),1.45 µM (active)
6,CCCCc1sc(-c2c(C#N)c(N)nc3c2CCCCC3)cc1[N+](=O)[O-],1.98 µM (active)
7,COc1ccc(CCC(=O)N2CCN(C3CCCCC3)CC2)cc1,1.53 µM (active)
8,Cc1ccc(NC(=O)COc2ccc(CCO)cc2-n2nc3ccccc3n2)cc1C,1.61 µM (active)
9,CCOC(=O)C1(CCOc2ccccc2)CCN(Cc2cccc3nonc23)CC1,1.49 µM (active)
10,Fc1ccc(N2CCN(Cc3c[nH]c4ccccc34)CC2)cc1,0.69 µM (active)
11,O=C(CCC1CCCN(Cc2ccncc2)C1)NCc1ccc(F)c(F)c1 (centres undefined),0.661 µM (active)
12,CC(C)/C=C1\CC/C(=C\c2cccnc2)C1=O,1.14 µM (active)
13,O=C(Nc1ccc(-c2csc(Nc3ccc(Cl)cc3)n2)cc1)c1cccc(C(F)(F)F)c1,1.76 µM (active)
14,COc1c(Cl)cc(Cl)cc1C(=O)Nc1ccc(NC(=O)c2cccs2)cc1,1.95 µM (active)
